# Literature values as cited in patent US20260207657A1, “ANTISEPTIC COMPOSITIONS AND METHODS” (Solventum Intellectual Properties Company, priority 2022, published 2026).
# Conditions: 25° C.
smiles,measurement,value
II [molecular iodine],Solubility in water,0.03 wt-%
